Literature values as cited in patent US20010050137A1, “Anti-microbial shoe linings, sock liners, and socks and process for manufacture of same” (priority 1995, published 2001).
Where two headings read alike, the source gives them in different places.

Columns and labels:
Trentopholia odorata = details: DMSO cosolvent
Staphylococcus aureus = details: ATCC 6538; approx. 10^6 organisms/ml; DMSO cosolvent
Candida Albicans = details: ATCC 11651; DMSO cosolvent
Fusarium sp. = details: approx. 10^5 colony-forming units/ml spores; DMSO cosolvent
Escherichia coli = details: ATCC 9637; approx. 10^6 organisms/ml; DMSO cosolvent
Pseudomonas aeruginosa = details: ATCC 9721; approx. 10^6 organisms/ml; DMSO cosolvent
Aspergillus niger = details: ATCC 9542; approx. 10^5 colony-forming units/ml spores; DMSO cosolvent
Anacystis montana = details: DMSO cosolvent
Chloroccum tetrasporum = details: DMSO cosolvent
[1] = tested on: most fungi (molds and yeasts); details: in general
[2] = tested on: Streptoverticillium reticulum; details: ATCC 25607; DMSO cosolvent
Aureobasidium pullulans = details: ATCC 9348; approx. 10^5 colony-forming units/ml spores; DMSO cosolvent
Synechocystis minima = details: DMSO cosolvent
Sctonema hofmaannii = details: DMSO cosolvent
Chaetomium globosum = details: ATCC 6205; approx. 10^5 colony-forming units/ml spores; DMSO cosolvent
[3] = commercial product, typical value
Pityrosporum Ovale = details: DMSO cosolvent
Klebsiella pheumoniae = details: ATCC 4352; approx. 10^6 organisms/ml; DMSO cosolvent
most algae = details: in general
[4] = tested on: algae, mold, mildew and bacteria including E-Coli and Salmonella
Penicillium pinophilum = details: ATCC 9644; approx. 10^5 colony-forming units/ml spores; DMSO cosolvent
most bacteria = details: in general
Gliocladium virens = details: ATCC 9645; approx. 10^5 colony-forming units/ml spores; DMSO cosolvent
Streptococcus faecalis = details: ATCC 19433; approx. 10^6 organisms/ml; DMSO cosolvent
[5] = for Solubility: 25° C.

c1cc[n+]2c(c1)[S][Zn-2]1([O]2)[O][n+]2ccccc2[S]1 [Zinc Omadine®, bis[1-hydroxy-2(1H)-pyridinethionato-0,S]-(T-4) zinc]
Minimum Inhibitory Concentrations (Trentopholia odorata): <0.06 Micrograms/ml (ppm) | Minimum Inhibitory Concentrations (Staphylococcus aureus): 4 Micrograms/ml (ppm) | Minimum Inhibitory Concentrations (Candida Albicans): <2 Micrograms/ml (ppm) | Minimum Inhibitory Concentrations (Fusarium sp.): 32 Micrograms/ml (ppm) | Minimum Inhibitory Concentrations (Escherichia coli): 8 Micrograms/ml (ppm) | Minimum Inhibitory Concentrations (Pseudomonas aeruginosa): 512 Micrograms/ml (ppm) | Minimum Inhibitory Concentrations (Aspergillus niger): 8 Micrograms/ml (ppm) | Minimum Inhibitory Concentrations (Anacystis montana): <0.06 Micrograms/ml (ppm) | Minimum Inhibitory Concentrations (Chloroccum tetrasporum): 8 Micrograms/ml (ppm) | MIC in vitro [1]: less than 5 ppm | Minimum Inhibitory Concentrations [2]: 4 Micrograms/ml (ppm) | Minimum Inhibitory Concentrations (Aureobasidium pullulans): <2 Micrograms/ml (ppm) | Minimum Inhibitory Concentrations (Synechocystis minima): <0.06 Micrograms/ml (ppm) | Minimum Inhibitory Concentrations (Sctonema hofmaannii): 0.5 Micrograms/ml (ppm) | Minimum Inhibitory Concentrations (Chaetomium globosum): <2 Micrograms/ml (ppm) | Heat Stability: time stable ([3]; at 100° C.): at least 120 hours | decomposition temperature [3]: 240 °C | Minimum Inhibitory Concentrations (Pityrosporum Ovale): 4 Micrograms/ml (ppm) | Minimum Inhibitory Concentrations (Klebsiella pheumoniae): 8 Micrograms/ml (ppm) | MIC in vitro (most algae): less than 1 ppm | inhibiting the growth of microorganisms [4]: capable of inhibiting the growth | Minimum Inhibitory Concentrations (Penicillium pinophilum): <2 Micrograms/ml (ppm) | MIC in vitro (most bacteria): less than 50 ppm | Minimum Inhibitory Concentrations (Gliocladium virens): 64 Micrograms/ml (ppm) | Minimum Inhibitory Concentrations (Streptococcus faecalis): 16 Micrograms/ml (ppm) | Solubility ([5]; Castor oil): <0.0001 w/w % | Solubility ([5]; Chloroform): 0.3 w/w % | Solubility ([5]; Diethyleneglycol monoethyl ether): 0.01 w/w % | Solubility ([5]; Dimethylsulfoxide): 4 w/w % | Solubility ([5]; Ethanol, 40A): 0.01 w/w % | Solubility ([5]; Ethyleneglycol monomethyl ether): 0.09 w/w % | Solubility ([5]; Isopropanol): 0.008 w/w % | Solubility ([5]; Isopropyl myristate): <0.0001 w/w % | Solubility ([5]; Isopropyl palmitate): <0.0001 w/w % | Solubility ([5]; Mineral oil, light): <0.0001 w/w % | Solubility ([5]; Olive oil): <0.0003 w/w % | Solubility ([5]; Polyethylene glycol 400): 0.2 w/w % | Solubility ([5]; Propylene glycol): 0.02 w/w % | Solubility ([5]; Water, pH 7, technical grade material, average): 0.0008 w/w % | Solubility in water ([5]; water, 95 percent powder form): insoluble in water
